Data reported in PMC9774438, “Effects of Synthetic Short Cationic Antimicrobial Peptides on the Catalytic Activity of Myeloperoxidase, Reducing Its Oxidative Capacity” (Antioxidants, 2022).
“Also recorded” adds a separate entry of the source. Like-named read-outs stand apart in the source and are kept apart here.

Legend:
[1] = system: erythrocytes; settings: PBS, 1 h, 37 °C, Triton X-100 = 100%
Protocol: Comparative evaluation of hemolytic activity of the cationic antimicrobial peptides (CAMPs) Hm-
AMP8, pept_1545, Hm-AMP1, and Hm-AMP2 using a hemolysis assay measuring hemoglobin released from
damaged cells. In each group of bars, the final peptide concentration from left to right is 12.5 μM, 25 μM, 50
μM, and 100 μM. For melittin, the left bar – 0.5 μM, and the right bar – 1 μM. A working erythrocyte suspension
(in PBS) was prepared so that its ten -fold dilution gave an optical density of 0.4 at 800 nm (about 30 × 10^6 cells/mL).
Erythrocytes (125 μL) were added to the same volume of PBS containing the peptide. Cells with PBS served as
negative control; cells with Triton X-100 served as positive control wh ich was set to 100%. After 1-h incubation
(with slight shaking) at 37 °C, the samples were centrifuged at 1000 × g for 10 min , the supernatant was
transferred to the wells of a microplate, and the absorbance of hemoglobin was measured by a Multiskan Ascent
plate reader (Thermo Electron Corporation, Vantaa, Finland), with a test wavelength of 414 nm and a
background wavelength of 690 nm. The hemolysis percentage was calculated using the following equation:
Hemolysis (%) = {(sample absorbance – negative control) / (positive control – negative control)} × 100. Data
shown are mean ± SD from three independent experiments using blood from three healthy volunteers, with […]

[2] = system: MPO active site; settings: computational docking; ref [31]; cited from earlier work
Excerpt: To react with MPO, a peptide residue has to closely approach to the active site. The active site heme group of MPO is located in a crevice (~15 Å in depth) with a channel (~10 Å in diameter) which opens into the distal cavity. Only H2O2 and small anions have ready access to the iron atom. Other compounds that are oxidized by MPO via the peroxidase cycle bind in the binding site at the entrance to the distal cavity. […] Despite concerns rais ...

[3] = system: MPO; settings: ref [31]; cited from earlier work
Excerpt: The positively charged character of arginine played a key role, since substitu ...

[4] = target: T1, myeloperoxidase (MPO) (Homo sapiens, UniProt P05164); assay: MPO peroxidase activity (Amplex Red assay); type: biochemical; settings: 0.8–50 μM peptide, 8 nM MPO heme, 50 μM Amplex Red, 25 μM H2O2, 50 mM K-phosphate pH 7.4
T1 construct: Native myeloperoxidase (MPO) was obtained from human leukocyte extract by successive chromatography on heparin-Sepharose and phenyl-agarose; from tissue; host or cells: human leukocyte extract
T1 sequence (P05164 279-745 limits assumed): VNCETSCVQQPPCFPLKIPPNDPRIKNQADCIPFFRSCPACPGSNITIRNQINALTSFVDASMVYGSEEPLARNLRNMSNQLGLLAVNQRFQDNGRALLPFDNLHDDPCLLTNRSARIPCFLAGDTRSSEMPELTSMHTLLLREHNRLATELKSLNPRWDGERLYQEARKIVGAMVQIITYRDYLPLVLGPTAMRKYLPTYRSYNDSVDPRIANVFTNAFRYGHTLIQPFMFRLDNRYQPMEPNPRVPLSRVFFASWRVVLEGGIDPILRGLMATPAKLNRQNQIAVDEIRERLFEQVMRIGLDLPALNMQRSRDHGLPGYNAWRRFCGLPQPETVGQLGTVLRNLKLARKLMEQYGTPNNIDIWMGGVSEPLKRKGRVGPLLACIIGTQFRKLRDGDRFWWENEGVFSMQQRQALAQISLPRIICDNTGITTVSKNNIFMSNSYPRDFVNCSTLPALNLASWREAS
T1 sequence (P05164 165-273 limits assumed): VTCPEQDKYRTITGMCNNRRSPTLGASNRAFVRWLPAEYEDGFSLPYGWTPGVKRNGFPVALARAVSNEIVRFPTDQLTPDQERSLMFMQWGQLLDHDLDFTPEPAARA
Protocol: MPO peroxidase activity was evaluated fluorometrically using Amplex Red^TM reagent which was oxidized by MPO to the fluorescent resorufin (λex = 530 nm, λem = 590 nm). The assay was performed in 96-plate format. The final reaction mixture in 50 mM K-phosphate buffer (pH 7.4) was as follows: MPO, 8 nM heme; peptide, […]; H2O2, 25 μM; Amplex Red reagent, 50 μM. MPO was preincubated with peptides for 5 min in a volume of 100 μl. Then, Amplex Red was added, and the enzymatic reaction was initiated by adding H2O2 (a final probe volume of 200 μL per well). The fluorescence measurement was made with a CLARIOstar multimodal plate reader (BMG Labtech, Ortenberg, Germany) at 5 min after the beginning of the reaction. To determine the type of CAMP-induced inhibition, KM and Vmax were obtained by varying substrates of MPO: Amplex Red in a final concentration from 1 to 62.5 μM, or H2O2 in a final concentration from 0.625 to 20 μM.
(§1) The Hannes-Wolf plots were made as ([Substrate]/V = f([Substrate]). KM was equal in magnitude to the intercept made on the abscissa axis by the approximating straight line; Vmax was calculated as a reciprocal value of the straight-line slope. The inhibition constant (Ki) for noncompetitive inhibition was calculated as follows: Ki = [I]/((Vmax − Vmax’)/Vmax’); Ki for competitive inhibition was calculated as follows: Ki = [I]/((KM’ − KM)/KM); Ki for mixed inhibition was calculated as follows: Ki = [I]/(((KM’ − KM)/KM)^2 + ((Vmax − Vmax’)/Vmax’))^2)^0.5; and Ki for uncompetitive inhibition was calculated as follows: Ki = [I]/(((KM − KM’)/KM’)^2 + ((Vmax – Vmax’)/Vmax’))^2)^0.5, where [I]—concentration of inhibitor (CAMP), KM—Michaelis constant without inhibitor, Vmax—maximal rate without inhibitor, KM’—Michaelis constant in the presence of inhibitor, Vmax’—maximal rate in the presence of inhibitor.
From the experiments with varying concentrations of H2O2 (0.01–200 μM) and Amplex Red (6.25–100 μM), the optimal concentrations of 25 μM H2O2 and 50 μM Amplex Red were chosen for further work. The 0.8–50 μM concentration range (corresponding to 100–6250 peptide molecules per heme) was used to determine the concentration dependence of the effect of CAMPs on peroxidase activity of MPO.

[5] = target: T1, myeloperoxidase (MPO); assay: MPO heme absorbance spectra (Compound II formation and decay, MPO turnover); type: biochemical; settings: 2 μM MPO heme, 100 μM H2O2, 10 mM Na-phosphate pH 7.4; all concentrations
Protocol: Native myeloperoxidase (MPO) was obtained from human leukocyte extract by successive chromatography on heparin-Sepharose and phenyl-agarose followed by gel-filtration on a Sephacryl S-200 HR, as previously described. The Reinheit Zahl value (A430 nm/A280 nm) for the purified protein was 0.85. The MPO concentration was determined as the heme concentration measured spectrophotometrically at 430 nm with a molar extinction coefficient of 91,000 M^−1 cm^−1 [35].
Spectra of MPO were recorded on a Cary 50 Bio UV-Vis spectrophotometer (Varian, Mulgrave, Australia). Experiments were performed with Eppendorf UVette plastic UV/Vis cuvettes (Hamburg, Germany). An MPO concentration was 2 μM heme. MPO was mixed with CAMP in 10 mM Na-phosphate buffer (pH 7.4) supplemented with 0.2 mM DTPA. H2O2 was added as a microvolume of concentrated solution (100 μM final).
To elucidate the influence of CAMPs on MPO catalytic activity, we analyzed absorbance spectral changes for MPO activated by H2O2 in the presence of peptides. The spectra were obtained with 2 μM MPO heme and 100 μM H2O2 in 10 mM Na-phosphate buffer, pH 7.4. All reactions in these and further experiments were performed in buffers supplemented with 0.2 mM diethylenetriaminepentaacetic acid (DTPA) to sequester free transition metal ions to prevent tyrosine and cysteine autooxidation.
Figure 2 Time courses of spectral absorbance changes at 430 nm (indicative of MPO ground state) and 455 nm (indicative of Compound II) in the absence and presence of cationic antimicrobial peptides (CAMPs) in the system MPO/H2O2. The name of CAMP is given in parentheses after the panel designation (A–D). H2O2 (100 µM) was added to MPO (2 µM heme) or MPO preincubated with peptides at different peptide/heme molar ratios for 5 min in 10 mM Na-phosphate buffer, pH 7.4. Spectra were taken before and 0.25 min, 5 min, 10 min, and so on after adding H2O2. The initial absorbance values (before H2O2 addition) are shown as a red square marker. […]

[6] = target: T1, myeloperoxidase (MPO); assay: MPO chlorinating activity (Celestine Blue B assay); type: biochemical; settings: 0.008–8 μM peptide, 0.8 nM MPO heme, 200 μM CB, 150 mM NaCl, 50 μM H2O2, 50 mM Na-acetate pH 5.5
Protocol: MPO chlorinating activity was evaluated fluorometrically using Celestine Blue B (CB) which was oxidized to fluorescent glycol (λex = 487 nm, λem = 578 nm) by taurine N-chloramine produced in the reaction of taurine with HOCl generated by MPO [39]. The assay was performed in 96-plate format. MPO was preincubated with peptides for 5 min in a volume of 100 μL, with the concentrations being: MPO, 1.6 nM heme and peptide, 16 nM–16 μM. Then, 100 μL aliquots of CB-containing mix (CB, 400 µM; H2O2, 100 µM; taurine, 4 mM; KI, 10 µM; NaCl, 300 mM; 50 mM Na-acetate buffer, pH 5.5) were added to MPO/peptide and to 100 μL of HOCl standards (0–150 μM). The fluorescence measurement was made with a CLARIOstar multimodal plate reader (BMG Labtech, Ortenberg, Germany) at 15 min after the reaction started. Fluorescence intensity detected for HOCl standards of HOCl was used for calculating the chlorinating activity as mole of HOCl per mole of MPO heme per second. To determine the type of CAMP-induced inhibition, KM and Vmax were obtained by varying substrates of MPO: NaCl in a final concentration from 25 to 300 mM, or H2O2 in a final concentration from 5 to 80 µM.
as §1
Chlorinating activity is a distinctive feature of MPO as compared with other peroxidases and it is an important property, enabling MPO to combat microbes. We tested whether the inhibitory effects of pept_1545 and Hm-AMP8 on peroxidase activity extend to MPO chlorinating activity. Chlorinating activity was measured using a fluorometric CB-based assay. To determine the concentration dependence of the effect of CAMPs on MPO chlorinating activity, the 0.008–8 μM concentration range (corresponding to 10–10,000 peptide molecules per heme) was used.

melittin
Hemolysis ([1]; 0.5 M (so in the source), three independent experiments): about 40%
Hemolysis ([1]; 1 M (so in the source)): complete hemolysis

GRRRRSVQWCA [antimicrobial peptide …, human lactoferrin-derived]
binding to MPO active site (docking) [2]: binding of the peptide GRRRRSVQWCA to the edge of and within the cleft of the active site
inhibition of MPO [3]: inhibiting MPO activity

RLKRFKRVALRREKTARNFRSIVS [Hm-AMP1]
effect on MPO peroxidase activity [4]: no inhibition; also recorded: No effect
effect on H2O2-induced formation and decay of MPO Compound II / MPO turnover (summary) [5]: no significant effect on MPO cycling
effect on MPO chlorinating activity [6]: no significant effect
